This is an account of results in patent US7235577B1 (priority 2000, dated 2007).

SMILES strings stand for the structures.

The subject of the data set is ten cell lines. The data set is described as follows: In vitro toxicity, summary over the ten cell lines. Particulars: at a concentration 100–250 times the Kd for IKCa1 channel block.

Protocol: The in vitro toxicity was performed as follows. Jurkat E6-1, MEL, C2F3, NGP, NLF cells and human T-lymphocytes were seeded at 5×10^5 cells/ml, and L929, COS-7, CHO and RBL cells were seeded at 10^5 cells/ml in twelve-well plates. Drug (2 or 5 μM) was added in a final DMSO concentration of 0.1%. After 48 h of incubation at 37° C. with 5% CO2, cells were harvested by sucking them off the plates (suspension cells) or by trypsinization (adherent cell lines). Cells were centrifuged, resuspended in 0.5 ml PBS containing 1 μg/ml propidium iodide (PI), and red fluorescence measured on a FACScan flow cytometer after 20 min, 10^4 cells of every sample being analyzed. The percentage of dead cells was determined by their PI uptake. Two controls for every cell line (one in medium and one with 0.1% DMSO) were also analyzed.

`Clc1ccccc1C(c1ccccc1)(c1ccccc1)n1cccn1` [Compound T34, 1-[(2-Chlorophenyl)diphenylmethyl]-1H-pyrazole]: the “cell viability in the ten cell lines examined” value is on record as “did not reduce cell viability”.
